The text below walks through data of patent US20200129582A1, “NOVEL PEPTIDES AND PEPTIDOMIMETICS” (UNIVERSITY OF AUCKLAND, priority 2016, published 2020).

The target in this assay is T1, Connexin43 protein (hemichannels of hCMVEC cells) (Homo sapiens, UniProt P17302).
T1 construct: endogenous in cells; host or cells: hCMVEC (human cerebral microvascular endothelial cells)
It counts as cell-based. As for the experimental part: (§1) Peptide5 interacting site on the Connexin43 protein was determined using a competition assay. Extracellular loop sequences (Auspep, Australia) were dissolved in miliQ H2O were at a stock concentration of 1 mM […]. Extracellular loop sequences were mixed with the native Peptide5 at 1:1 ratio (100 μM), which was left for 1 hour at room temperature prior to the experiment to allow competitive binding to occur. Following 1-hour incubation, extracellular loop sequence and peptide5 mixture was dissolved in injury solution and exposed to hCMVEC cells for 2 hours using the ischaemia-reperfusion model described above. Extracellular medium was then collected for ATP measurement.
as §1, with “interaction sites” for “interacting site”

T1 sequence (P17302 2-382): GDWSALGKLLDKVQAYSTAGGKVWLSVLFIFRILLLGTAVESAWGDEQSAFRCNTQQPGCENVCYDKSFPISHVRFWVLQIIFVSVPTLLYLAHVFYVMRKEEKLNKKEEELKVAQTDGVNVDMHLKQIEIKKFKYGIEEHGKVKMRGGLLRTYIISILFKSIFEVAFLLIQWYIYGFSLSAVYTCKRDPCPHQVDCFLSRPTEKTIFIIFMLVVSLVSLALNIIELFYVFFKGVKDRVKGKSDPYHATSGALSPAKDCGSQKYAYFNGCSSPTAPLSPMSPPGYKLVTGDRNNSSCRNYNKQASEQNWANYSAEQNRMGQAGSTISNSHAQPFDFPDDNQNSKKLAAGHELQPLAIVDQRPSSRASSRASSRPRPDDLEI

On to VDCFLSRPTEKT [Peptide5], for which the “ATP release, % of the injury control” value is on record as 54.1±4.4%.
